What was measured:
Assay type in all cases: cell-based, human
[1] = test system: motor neurons induced to differentiate from iPS cells derived from ALS patients (FUS-ALS) having a mutation in FUS; assay: Neurite length in late stage ALS disease, FUS-ALS (Example I-9); details: final concentration 1 μM, added days 50 to 62 from start of differentiation induction, FIG. 14
Description: The efficacy of ropinirole was evaluated in the same manner as in Example I-8, except that the timing of adding ropinirole was changed to days 50 to 62 from the start of the differentiation induction of each iPS cell. It is assumed that days 50 to 62 after the start of induction of differentiation correspond to the late stage of the ALS disease.
Specifically, ropinirole was added to a medium of motor neurons induced to differentiate from iPS cells derived from ALS patients (FUS-ALS) having a mutation in FUS and motor neurons induced to differentiate from iPS cells derived from ALS patients (TDP-43-ALS) having a mutation in TDP-43 and the changes over time in the neurite length were measured. The measurement of neurite length was carried out in the same manner as in Example I-2. Ropinirole was added to the medium at a final concentration of 1 μM.
FIG. 14(a) is a graph showing the results of measurement of the changes over time in the neurite length of each motor neuron. In FIG. 14(a), the vertical axis represents the neurite length (relative value), the horizontal axis represents the number of days of culturing from the start of differentiation induction, and “+ROPI” represents the result of adding ropinirole to the medium. In addition, FIG. 14(b) is a graph enlarging the boxed portion of the graph of FIG. 14(a). […]

[2] = test system: motor neurons differentiated from iPS cells derived from 24 patients having sporadic ALS (SALS); assay: CV caspase 3-positive ratio, 24 sporadic ALS patient models (Example III-5); details: final concentration 1 μM for 5 days
Description: In the same manner as in Example II-1, iPS cells derived from 24 patients having sporadic ALS (SALS) were differentiated into motor neurons and then ropinirole with a final concentration of 1 μM was added to the medium. In addition, for comparison, a group for which ropinirole was not added to the medium was prepared. In addition, as a control, a group for which iPS cells derived from healthy subjects were differentiated into motor neurons in the same manner as in Example I-1 was used. No ropinirole was added to the medium of these motor neurons. As the iPS cells derived from a healthy subject, the same cells as used in Example I-1 were used.
Below, each differentiated motor neuron is identified by the patient number from whom the neuron was derived.
In all of the motor neurons, the addition period of ropinirole was 5 days. The time to start the addition of ropinirole varied depending on the case and was from day 30 to day 70 from the start of the differentiation induction of each of the iPS cells.
Subsequently, for each motor neuron on day 5 after the addition of ropinirole, the ratio of CV caspase 3-positive neurons was measured in the same manner as in Example I-3.
FIG. 15 is a graph showing the measurement results of the ratio of CV caspase 3-positive neurons. […]

[3] = test system: motor neurons induced to differentiate from iPS cells derived from ALS patients (FUS-ALS) having a mutation in FUS; assay: Stress granule formation (G3BP immunostaining), FUS-ALS motor neurons
Description: On day 40 from the start of differentiation induction, the formation of stress granules was examined using each differentiation-induced motor neuron in Example I-1. The detection of stress granules was performed by immunostaining with G3BP, which is a marker of stress granules.
Using the differentiation-induced motor neurons in Example I-1, drugs which cause the ALS phenotype to be restored were screened from existing drug libraries with the neurite length, ectopic localization of FUS protein, stress granule formation, LDH leakage ratio, CV-caspase 3-positive ratio, phosphorylated TDP-43 protein inclusion formation, and the like as indices.
As a result of the screening, ropinirole was found as a promising therapeutic agent for ALS. Tables 5 and 6 show the improvement ratio (%) in the ALS phenotype due to adding ropinirole to the medium. Here, ropinirole was added to the medium on days 35 to 40 from the start of the differentiation induction of each iPS cell. Here, it is assumed that days 35 to 40 from the start of differentiation induction correspond to the early stage of the ALS disease.
(§1) The improvement ratio (%) of the ALS phenotype was calculated by Equation (1).
(§2) [formula] [In Equation (1), A represents a measurement value of motor neurons induced to differentiate from iPS cells derived from ALS patients in the absence of ropinirole, and B represents a measurement value of motor neurons induced to differentiate from iPS cells derived from ALS patients in the presence of ropinirole, and C represents a measurement value of motor neurons induced to differentiate from iPS cells derived from healthy subjects in the absence of ropinirole.]
(§3) Subsequently, in the same manner as above, the efficacy in cases of administering lower concentrations of ropinirole was evaluated.
(§4) Each drug was added to the medium at a final concentration of 10 μM.

[4] = test system: motor neurons induced to differentiate from iPS cells derived from ALS patients (TDP-43-ALS) having a mutation in TDP-43; assay: LDH leakage ratio, TDP-43-ALS motor neurons
Description: The leakage amount of LDH into the medium is an indicator of cytotoxicity. For measurement of the LDH leakage ratio, a commercially available kit (model “LDH Cytotoxicity Detection Kit”, Takara Bio Inc.) was used.
Here, ropinirole was added to the medium on days 35 to 40 from the start of the differentiation induction of each iPS cell. Here, it is assumed that days 35 to 40 from the start of differentiation induction correspond to the early stage of the ALS disease.
as §1, §2, §3, §4

[5] = final concentration 0.1 μM, added days 35 to 40
[6] = final concentration 1 μM, added days 35 to 40
[7] = final concentration 10 μM, added days 35 to 40

CCCN(CCC)CCc1cccc2c1CC(=O)N2 [Ropinirole, 4-(2-di-n-propylaminoethyl)-2(3H)-indole] was tested, and the “Neurite length (changes over time), late stage” value [1] was “neuroprotective action (maintenance of neurite length)”, the “Share of SALS cases in which the increase in CV caspase 3-positive ratio was suppressed” value ([2]; 16 of 22 cases) was 72.73 % of SALS cases and the “Cases in which the increase in CV caspase 3-positive ratio was suppressed” value ([2]; among 22 SALS cases with confirmed increase (of 24), FIG. 15) was 16 cases. The “Stress granule formation improvement ratio” value ([3]; final concentration 0.1 nM) was 8.2%, the “Stress granule formation improvement ratio” value ([3]; final concentration 1 nM) was 23.2% and the “Stress granule formation improvement ratio” value ([3]; final concentration 10 nM) was 39.3%. The “Stress granule formation improvement ratio” value [3, 5] was 36.6%, the “Stress granule formation improvement ratio” value [3, 6] was 34.4% and the “Stress granule formation improvement ratio” value [3, 7] was 66.1%. For the same compound, the “LDH leakage ratio improvement ratio” value ([4]; final concentration 0.1 nM) was 10.2%, the “LDH leakage ratio improvement ratio” value ([4]; final concentration 1 nM) was 55.2% and the “LDH leakage ratio improvement ratio” value ([4]; final concentration 10 nM) was 56.6%. The “LDH leakage ratio improvement ratio” value [4, 5] was 58.3%, the “LDH leakage ratio improvement ratio” value [4, 6] was 78.1% and the “LDH leakage ratio improvement ratio” value [4, 7] was 82.4%.
